Several values for one entry are separate records, joined by “and”; a condition that tells them apart may be missing. Equal entries are not always repeated. One block for each molecule: values may come before it.
Columns and labels:
[1] = target: T1, 11-beta-hydroxysteroid dehydrogenase 1 (Homo sapiens, UniProt P28845); assay: Inhibition of human 11beta-HSD1
[2] = target: T2, 11-beta-hydroxysteroid dehydrogenase 1 (Mus musculus, UniProt P50172); assay: Inhibition of mouse 11beta-HSD1
[3] = target: T1, 11-beta-hydroxysteroid dehydrogenase 1; assay: Inhibition of human 11beta-HSD1 using steroid as substrate incubated for 20 to 30 mins by microplate fluorimeter analysis
[4] = target: T2, 11-beta-hydroxysteroid dehydrogenase 1; assay: Inhibition of mouse 11beta-HSD1 expressed in CHO-K1 cells incubated for 3 hrs by HTRF assay; type: cell-based
[5] = target: T1, 11-beta-hydroxysteroid dehydrogenase 1; assay: Inhibition of human 11beta-HSD1 incubated for 30 mins by HPLC-MS/MS analysis
[6] = target: T3, 11-beta-hydroxysteroid dehydrogenase 1 (Rattus norvegicus, UniProt P16232); assay: Inhibition of rat 11beta-HSD1 expressed in Leydig cells; type: cell-based
T3 sequence (P16232 whole entry): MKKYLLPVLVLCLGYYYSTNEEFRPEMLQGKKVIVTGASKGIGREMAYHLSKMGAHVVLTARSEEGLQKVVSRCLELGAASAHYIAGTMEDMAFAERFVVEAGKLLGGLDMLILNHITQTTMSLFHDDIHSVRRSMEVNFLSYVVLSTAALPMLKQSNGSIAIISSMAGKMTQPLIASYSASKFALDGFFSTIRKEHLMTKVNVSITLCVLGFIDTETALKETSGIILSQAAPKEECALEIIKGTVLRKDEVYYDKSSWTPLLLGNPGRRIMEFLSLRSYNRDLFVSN

[7] = Inhibition of rat 11beta-HSD2 expressed in Leydig cells; type: cell-based
[8] = target: T2, 11-beta-hydroxysteroid dehydrogenase 1; assay: Inhibition of mouse 11beta-HSD1 expressed in CHO-K1 cells incubated for 24 hrs by HTRF assay; type: cell-based
[9] = target: Hydroxysteroid 11-beta dehydrogenase 1 (Macaca mulatta, UniProt Q56D22); assay: Inhibition of monkey 11beta-HSD1 in liver microsome incubated for 24 hrs by LC-MS analysis; type: microsomes
Hydroxysteroid 11-beta dehydrogenase 1, sequence (Q56D22 whole entry): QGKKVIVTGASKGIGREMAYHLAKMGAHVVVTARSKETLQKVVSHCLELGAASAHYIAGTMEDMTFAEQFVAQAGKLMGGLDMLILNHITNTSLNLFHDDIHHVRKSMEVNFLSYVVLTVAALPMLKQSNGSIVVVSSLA

[10] = target: T2, 11-beta-hydroxysteroid dehydrogenase 1; assay: Inhibition of mouse 11beta-HSD1 in liver microsome incubated for 24 hrs by LC-MS analysis; type: microsomes
[11] = target: T1, 11-beta-hydroxysteroid dehydrogenase 1; assay: Inhibition of human 11beta-HSD1 in liver microsome incubated for 24 hrs by LC-MS analysis; type: microsomes
[12] = target: T2, 11-beta-hydroxysteroid dehydrogenase 1; assay: Inhibition of mouse 11beta-HSD1 expressed in 3T3-L1 cells incubated for 24 hrs by HTRF assay; type: cell-based
[13] = target: T2, 11-beta-hydroxysteroid dehydrogenase 1; assay: Inhibition of mouse 11beta-HSD1 incubated for 24 hrs by HTRF assay
[14] = target: T4, 11-beta-hydroxysteroid dehydrogenase type 2 (Homo sapiens, UniProt P80365); assay: Inhibition of human 11beta-HSD2 incubated for 2 hrs by HPLC analysis
T4 sequence (P80365 whole entry): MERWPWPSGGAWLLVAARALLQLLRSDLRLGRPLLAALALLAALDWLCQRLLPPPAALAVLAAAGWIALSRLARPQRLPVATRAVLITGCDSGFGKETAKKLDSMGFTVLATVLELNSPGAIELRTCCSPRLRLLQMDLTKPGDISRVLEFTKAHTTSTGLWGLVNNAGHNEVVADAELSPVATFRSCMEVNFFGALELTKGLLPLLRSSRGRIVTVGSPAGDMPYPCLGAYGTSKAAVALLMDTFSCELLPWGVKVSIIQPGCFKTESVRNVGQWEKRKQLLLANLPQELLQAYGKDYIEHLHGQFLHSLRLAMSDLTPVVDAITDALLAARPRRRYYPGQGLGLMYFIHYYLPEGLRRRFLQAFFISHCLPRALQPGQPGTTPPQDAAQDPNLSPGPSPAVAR

[15] = target: T3, 11-beta-hydroxysteroid dehydrogenase 1; assay: Inhibition of rat 11beta-HSD1
[16] = target: T3, 11-beta-hydroxysteroid dehydrogenase 1; assay: Inhibition of rat 11beta-HSD1 in kidney microsomes incubated for 20 mins by HPLC analysis; parameters: species or system Microsome
[17] = target: 11-beta-hydroxysteroid dehydrogenase 1 (Rattus norvegicus) (UniProt P16232); assay: Inhibition of rat 11beta-HSD1 in adipose tissue microsome

T2 sequence (P50172 whole entry): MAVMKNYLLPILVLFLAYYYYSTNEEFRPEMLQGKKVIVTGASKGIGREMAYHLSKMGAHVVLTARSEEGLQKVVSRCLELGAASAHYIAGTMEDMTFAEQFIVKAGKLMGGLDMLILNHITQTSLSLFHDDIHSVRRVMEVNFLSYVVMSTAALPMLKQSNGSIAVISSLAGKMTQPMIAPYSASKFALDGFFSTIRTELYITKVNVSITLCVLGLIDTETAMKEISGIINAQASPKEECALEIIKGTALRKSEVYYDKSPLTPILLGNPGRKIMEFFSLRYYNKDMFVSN
T1 sequence (P28845 whole entry): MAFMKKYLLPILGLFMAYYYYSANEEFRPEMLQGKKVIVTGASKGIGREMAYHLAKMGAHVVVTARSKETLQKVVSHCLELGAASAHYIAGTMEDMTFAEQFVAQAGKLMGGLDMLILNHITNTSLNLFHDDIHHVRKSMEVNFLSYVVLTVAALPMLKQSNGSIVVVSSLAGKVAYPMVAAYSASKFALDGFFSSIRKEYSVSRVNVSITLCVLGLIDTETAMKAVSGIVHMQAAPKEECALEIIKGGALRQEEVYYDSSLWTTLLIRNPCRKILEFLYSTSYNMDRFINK

IC50 [1]: 61 nM
SMILES: O=S(=O)(c1ccccc1)N1CCN(c2ncccc2C(F)(F)F)CC1

IC50 [2]: 4.3 nM
SMILES: C[C@@H](c1ccc(-c2ccn(C)c(=O)c2)cc1)N1CC[C@](CC(C)(C)O)(c2ccccc2)OC1=O

IC50 [3]: 335 nM
SMILES: O=C(Cc1csc(NS(=O)(=O)c2c(Cl)cc(Cl)cc2Cl)n1)N1CCOCC1

IC50 [3]: 63 nM
SMILES: O=S(=O)(Nc1nc(-c2sccc2Cl)cs1)c1cc(F)c(Br)cc1F

IC50 [4]: 2130 nM
SMILES: O=C(NC12CC3CC(CC(C3)C1)C2)C1NCCS1 (configuration not stated)

IC50 [5]: 9.07 µM
SMILES: CC1=C2[C@H](C)[C@@H](C)O[C@]23O[C@H](C)[C@@H](C)O[C@@]3(O)CC1=O

IC50 [6]: 100 nM
IC50 [7]: > 100 µM
SMILES: O=C1/C(=C\c2ccccc2C(F)(F)F)CCC/C1=C\c1ccccc1C(F)(F)F

IC50 [8]: 0.4 nM
SMILES: NC(=O)C12CC3CC(CC(NC(=O)CN4CCCN(c5c(Cl)cc(Cl)cc5Cl)S4(=O)=O)(C3)C1)C2

IC50 [3]: 55 nM
SMILES: Cc1nc(NS(=O)(=O)c2ccc(Cl)cc2Cl)sc1CC(Cl)(Cl)Cl

IC50 [9]: 2.43 nM
IC50 [10]: 2.8 nM
IC50 [11]: 0.02 nM
SMILES: CN(CC1(C(=O)NC23CC4CC(C2)CC(C(N)=O)(C4)C3)CC1)S(=O)(=O)c1ccccc1F

IC50 [4]: 5.2 nM
IC50 [12]: 3 nM
SMILES: NC(=O)C12CC3CC(CC(NC(=O)C4SCCN4S(=O)(=O)c4ccccc4F)(C3)C1)C2 (configuration not stated)

IC50 [13]: 210 nM
SMILES: O=C(CN1C(C(=O)c2ccccc2)=C(O)c2ccccc2S1(=O)=O)c1ccccc1

SMILES: O=C(O[C@@H]1Cc2c(O)cc(O)cc2O[C@@H]1c1cc(O)c(O)c(O)c1)c1cc(O)c(O)c(O)c1 [EPIGALOCATECHIN GALLATE]
IC50 [14]: 20.9 µM

IC50 [15]: 8 nM
IC50 [2]: 1 nM and 8 nM
IC50 [1]: 11 nM
SMILES: C[C@@H]1CN(c2ccc(F)cc2C(F)(F)F)CCN1S(=O)(=O)c1cccc([C@@](C)(O)C(F)(F)F)c1 [HSD-016]

IC50 [16]: 35.2 µM
IC50 [17]: 1000 nM
SMILES: Oc1ccc(/C=C/c2cc(O)cc(O)c2)cc1 [RESVERATROL]
